Experimental data reported in PubChem BioAssay AID1918957 (Molecular Pharmacology Branch, DTP, NCI, 2023).
“And” between values parts separate entries of the source, which are not always exact repeats. Equal entries are not always repeated. The source made the active and inactive calls. The calls were made as follows: active = viability on the fitted dose curve at most 10% of control; inactive = the rest.

System: NCI-H1876 complex spheroid viability
Assay: Anticancer human tumor NCI-H1876 cell line growth inhibition [LSD1];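 as to IC50: spheroids exposed to compounds for one week before readout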;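 as to viability, T/C: spheroids exposed to compounds for one week before readout; 100% = DMSO vehicle-treated spheroids so lower means fewer viable cells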
Conditions: for viability, T/C: stronger effect = lower value
How it was run: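 Complex spheroids of tumor cells with HUVEC and human MSCs, exposed to iadademstat combined with other agents. Each agent tested in half-log steps from near clinical Cmax (else 10 microM top), DMSO ≤0.25%.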

[1] = curve of first compound, second compound 0.1 µM
[2] = curve of first compound, second compound 0.316 µM
[3] = curve of first compound, second compound 1 µM
[4] = curve of first compound, second compound 3.16 µM
[5] = curve of first compound, second compound 10 µM
[6] = second compound 0.1 µM, first compound 0.00949 µM
[7] = second compound 0.1 µM, first compound 0.03 µM
[8] = second compound 0.1 µM, first compound 0.0949 µM
[9] = second compound 0.1 µM, first compound 0.3 µM
[10] = second compound 0.316 µM, first compound 0.00949 µM
[11] = second compound 0.316 µM, first compound 0.03 µM
[12] = second compound 0.316 µM, first compound 0.0949 µM
[13] = second compound 0.316 µM, first compound 0.3 µM
[14] = second compound 1 µM, first compound 0.00949 µM
[15] = second compound 1 µM, first compound 0.03 µM
[16] = second compound 1 µM, first compound 0.0949 µM
[17] = second compound 1 µM, first compound 0.3 µM
[18] = second compound 3.16 µM, first compound 0.00949 µM
[19] = second compound 3.16 µM, first compound 0.03 µM
[20] = second compound 3.16 µM, first compound 0.0949 µM
[21] = second compound 3.16 µM, first compound 0.3 µM
[22] = second compound 10 µM, first compound 0.00949 µM
[23] = second compound 10 µM, first compound 0.03 µM
[24] = second compound 10 µM, first compound 0.0949 µM
[25] = second compound 10 µM, first compound 0.3 µM
[26] = second compound 0.1 µM, first compound 0.949 µM
[27] = second compound 0.1 µM, first compound 3 µM
[28] = second compound 0.316 µM, first compound 0.949 µM
[29] = second compound 0.316 µM, first compound 3 µM
[30] = second compound 1 µM, first compound 0.949 µM
[31] = second compound 1 µM, first compound 3 µM
[32] = second compound 3.16 µM, first compound 0.949 µM
[33] = second compound 3.16 µM, first compound 3 µM
[34] = second compound 10 µM, first compound 0.949 µM
[35] = second compound 10 µM, first compound 3 µM

O=C(C=Cc1cccc(S(=O)(=O)Nc2ccccc2)c1)NO
viability, T/C (compound 0.00949 µM): 101% and 104% | viability, T/C (compound 0.03 µM): 98.9% and 104% | viability, T/C (compound 0.0949 µM): 75.1% and 73.1% | viability, T/C (compound 0.3 µM): 27.6% and 19.1% | viability, T/C (compound 0.949 µM): 9.32% and 8.04% | viability, T/C (compound 3 µM): 2.33% and 0.42% | IC50 (curve of compound): 176 nM and 156 nM

Nc1ccn(C2OC(CO)C(O)C2(F)F)c(=O)n1 (stereo not drawn) + NC1CCC(NC2CC2c2ccccc2)CC1
IC50 [1]: 6.89 nM | IC50 [2]: 6.69 nM | IC50 [3]: 6.77 nM | IC50 [4]: 6.75 nM | IC50 [5]: 6.25 nM | viability, T/C (second compound 0.1 µM, first compound 0.000949 µM): 111% | viability, T/C (second compound 0.1 µM, first compound 0.003 µM): 101% | viability, T/C [6]: 30.3% | viability, T/C [7]: 22.3% | viability, T/C [8]: 22.9% | viability, T/C [9]: 10.8% | viability, T/C (second compound 0.316 µM, first compound 0.000949 µM): 104% | viability, T/C (second compound 0.316 µM, first compound 0.003 µM): 96% | viability, T/C [10]: 29.7% | viability, T/C [11]: 18.1% | viability, T/C [12]: 11.7% | viability, T/C [13]: 9.66% | viability, T/C (second compound 1 µM, first compound 0.000949 µM): 111% | viability, T/C (second compound 1 µM, first compound 0.003 µM): 96.7% | viability, T/C [14]: 30.3% | viability, T/C [15]: 18.6% | viability, T/C [16]: 12.1% | viability, T/C [17]: 11.3% | viability, T/C (second compound 3.16 µM, first compound 0.000949 µM): 110% | viability, T/C (second compound 3.16 µM, first compound 0.003 µM): 107% | viability, T/C [18]: 26.2% | viability, T/C [19]: 23.2% | viability, T/C [20]: 17.9% | viability, T/C [21]: 9.56% | viability, T/C (second compound 10 µM, first compound 0.000949 µM): 109% | viability, T/C (second compound 10 µM, first compound 0.003 µM): 90.8% | viability, T/C [22]: 26.4% | viability, T/C [23]: 23.5% | viability, T/C [24]: 17.8% | viability, T/C [25]: 10.5%

Cn1ncnc1C1c2n[nH]c(=O)c3cc(F)cc(c23)NC1c1ccc(F)cc1 (stereo not drawn)
viability, T/C (compound 0.000316 µM): 100% and 104% | viability, T/C (compound 0.001 µM): 95% and 107% | viability, T/C (compound 0.00316 µM): 107% and 100% | viability, T/C (compound 0.01 µM): 107% and 100% | viability, T/C (compound 0.0316 µM): 94.9% and 93.5% | viability, T/C (compound 0.1 µM): 93.8% and 79.9% | IC50 (curve of compound): > 100 nM

O=C(C=Cc1cccc(S(=O)(=O)Nc2ccccc2)c1)NO + NC1CC1c1ccc(-c2cccc(O)c2)cc1
IC50 [1]: 165 nM | IC50 [2]: 165 nM | IC50 [3]: 171 nM | IC50 [4]: 178 nM | IC50 [5]: 157 nM | viability, T/C [6]: 110% | viability, T/C [7]: 111% | viability, T/C [8]: 81.1% | viability, T/C [9]: 16.3% | viability, T/C [26]: 6.97% | viability, T/C [27]: 0.3% | viability, T/C [10]: 107% | viability, T/C [11]: 115% | viability, T/C [12]: 80.4% | viability, T/C [13]: 16.8% | viability, T/C [28]: 5.12% | viability, T/C [29]: 0.27% | viability, T/C [14]: 114% | viability, T/C [15]: 109% | viability, T/C [16]: 85.6% | viability, T/C [17]: 15.9% | viability, T/C [30]: 5.57% | viability, T/C [31]: 0.28% | viability, T/C [18]: 111% | viability, T/C [19]: 111% | viability, T/C [20]: 87.8% | viability, T/C [21]: 18.4% | viability, T/C [32]: 5.71% | viability, T/C [33]: 0.36% | viability, T/C [22]: 108% | viability, T/C [23]: 102% | viability, T/C [24]: 71.7% | viability, T/C [25]: 21.7% | viability, T/C [34]: 5.51% | viability, T/C [35]: 0.42%

CCN(c1cc(-c2ccc(CN3CCOCC3)cc2)cc(C(=O)NCc2c(C)cc(C)[nH]c2=O)c1C)C1CCOCC1
viability, T/C (compound 0.00949 µM): 104% and 108% | viability, T/C (compound 0.03 µM): 97.2% and 107% | viability, T/C (compound 0.0949 µM): 104% and 96.1% | viability, T/C (compound 0.3 µM): 101% and 96.2% | viability, T/C (compound 0.949 µM): 82.7% and 79.5% | viability, T/C (compound 3 µM): 55.7% and 54.8% | IC50 (curve of compound): > 3000 nM

CC[C@@]1(O)C(=O)OCc2c1cc1n(c2=O)Cc2cc3c(CN(C)C)c(O)ccc3nc2-1 + NC1CCC(NC2CC2c2ccccc2)CC1
IC50 [1]: 1.61 nM | IC50 [2]: 2.15 nM | IC50 [3]: 2.14 nM | IC50 [4]: 2.18 nM | IC50 [5]: 2.02 nM | viability, T/C (second compound 0.1 µM, first compound 0.000316 µM): 105% | outcome (second compound 0.1 µM, first compound 0.001 µM): inactive | viability, T/C (second compound 0.1 µM, first compound 0.00316 µM): 33.1% | viability, T/C (second compound 0.1 µM, first compound 0.01 µM): 23.1% | viability, T/C (second compound 0.1 µM, first compound 0.0316 µM): 12.1% | viability, T/C (second compound 0.1 µM, first compound 0.1 µM): 16.7% | viability, T/C (second compound 0.316 µM, first compound 0.000316 µM): 110% | viability, T/C (second compound 0.316 µM, first compound 0.001 µM): 94.2% | viability, T/C (second compound 0.316 µM, first compound 0.00316 µM): 27.5% | viability, T/C (second compound 0.316 µM, first compound 0.01 µM): 29.9% | viability, T/C (second compound 0.316 µM, first compound 0.0316 µM): 17.3% | viability, T/C (second compound 0.316 µM, first compound 0.1 µM): 14.7% | viability, T/C (second compound 1 µM, first compound 0.000316 µM): 113% | viability, T/C (second compound 1 µM, first compound 0.001 µM): 92.3% | viability, T/C (second compound 1 µM, first compound 0.00316 µM): 27.6% | viability, T/C (second compound 1 µM, first compound 0.01 µM): 31.8% | viability, T/C (second compound 1 µM, first compound 0.0316 µM): 18.4% | viability, T/C (second compound 1 µM, first compound 0.1 µM): 8.81% | viability, T/C (second compound 3.16 µM, first compound 0.000316 µM): 112% | viability, T/C (second compound 3.16 µM, first compound 0.001 µM): 102% | viability, T/C (second compound 3.16 µM, first compound 0.00316 µM): 25% | viability, T/C (second compound 3.16 µM, first compound 0.01 µM): 19.3% | viability, T/C (second compound 3.16 µM, first compound 0.0316 µM): 19% | viability, T/C (second compound 3.16 µM, first compound 0.1 µM): 9.21% | viability, T/C (second compound 10 µM, first compound 0.000316 µM): 112% | viability, T/C (second compound 10 µM, first compound 0.001 µM): 90.3% | viability, T/C (second compound 10 µM, first compound 0.00316 µM): 24.2% | viability, T/C (second compound 10 µM, first compound 0.01 µM): 24.3% | viability, T/C (second compound 10 µM, first compound 0.0316 µM): 20% | viability, T/C (second compound 10 µM, first compound 0.1 µM): 19.4%

O=C(C=Cc1cccc(S(=O)(=O)Nc2ccccc2)c1)NO + NC1CCC(NC2CC2c2ccccc2)CC1
IC50 [1]: 196 nM | IC50 [2]: 193 nM | IC50 [3]: 179 nM | IC50 [4]: 193 nM | IC50 [5]: 158 nM | viability, T/C [6]: 109% | viability, T/C [7]: 103% | viability, T/C [8]: 89.3% | viability, T/C [9]: 27% | viability, T/C [26]: 12.8% | viability, T/C [27]: 10.9% | viability, T/C [10]: 103% | viability, T/C [11]: 101% | viability, T/C [12]: 87% | viability, T/C [13]: 27.1% | viability, T/C [28]: 13.9% | viability, T/C [29]: 19.6% | viability, T/C [14]: 103% | viability, T/C [15]: 105% | viability, T/C [16]: 77.3% | viability, T/C [17]: 27.3% | viability, T/C [30]: 6.13% | viability, T/C [31]: 0.61% | viability, T/C [18]: 101% | viability, T/C [19]: 106% | viability, T/C [20]: 82.2% | viability, T/C [21]: 29.8% | viability, T/C [32]: 4.78% | viability, T/C [33]: 0.3% | viability, T/C [22]: 105% | viability, T/C [23]: 99.3% | viability, T/C [24]: 69.8% | viability, T/C [25]: 26.6% | viability, T/C [34]: 3.06% | viability, T/C [35]: 19.4%

O=C(c1cc(Cc2n[nH]c(=O)c3ccccc23)ccc1F)N1CCN(C(=O)C2CC2)CC1
viability, T/C (compound 0.0316 µM): 99.1% and 93.9% | viability, T/C (compound 0.1 µM): 96% and 96.3% | viability, T/C (compound 0.316 µM): 91.3% and 97.4% | viability, T/C (compound 1 µM): 85.9% and 91.3% | viability, T/C (compound 3.16 µM): 65.4% and 68.3% | viability, T/C (compound 10 µM): 33.4% and 36.2% | IC50 (curve of compound): 5540 nM and 6100 nM
